# Laboratory results as given in ChEMBL document CHEMBL1201862, “PubChem BioAssay data set” (2004).
# Activity calls are given as the source filed them.
# What was measured:
# [1] = off-target signal loss in HeLa-CEM21 co-culture – HeLa F-luc CTL cells, cherry-picked, counter-screen for HIV-1 Env fusion inhibitor project, dose response (AID 652040); type: functional, cell-based;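 note: potency for signal decrease marking cytotoxic or nonspecific inhibition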
# [2] = HIV-1 AD8 envelope cell-cell fusion blockers – cherry-pick, dose response (AID 652062); type: functional, cell-based;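 note: luciferase signal from cell-cell fusion driven by HIV-1 clade B AD8 Env; potency is for inhibitors of fusion seen as a drop in luminescence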
# Jurkat = experiment: blockers of NF-kB activation in T cells – Jurkat, luciferase reporter, luminescence, B- and T-cell, dose response (AID 489004); type: functional, cell-based; settings: Homo sapiens;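 note: NF-kB luciferase reporter Jurkat cells stimulated with PMA plus ionomycin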
# [3] = viability loss in CEM21 cells – cell-based, CellTiter-Glo luminescence, cherry-picked, cytotoxicity control for viral fusion inhibitor project, dose response (AID 652042); type: functional;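 note: potency for signal decrease meaning cytotoxicity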
# [4] = luciferase reporter signal suppression in cells – H4 neuroglioma cells, luminescence, dose response (AID 1990); type: functional, cell-based
# [5] = alpha-synuclein stem-loop luciferase translation blockers – H4 neuroglioma cells, luminescence, confirmation (AID 1988); type: functional, cell-based
# [6] = Luminescence Cell-Based Dose Response HTS to Identify Inhibitors of 5'UTR Stem-Loop Driven Prion Protein mRNA Translation in H4 Neuroglioblastoma Cells. [Related pubchem assays: 1827 (Project Summary), 1813 (Primary HTS)]; type: functional
# [7] = HEK-293T viability loss, compound-treated – cell-based, uHTS hits, cytotoxicity control for B/T-cell NF-kB inhibitor project, dose response (AID 489019); type: functional;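 note: IC50 reflects cytotoxicity as loss of cell viability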
# Candida albicans = experiment: antifungal activity against resistant Candida strain – CaCi-8, fluconazole, Alamar Blue, dry powder, dose response (AID 488807); type: functional, organism-based
# [8] = biological target: Beta-adrenergic receptor kinase 1 (Homo sapiens, UniProt P25098); experiment: blockers of aptamer binding to GRK2 – biochemical, flow cytometry beads, FAM-aptamer, powder set 1, dose response (AID 588720)
# Sequence of Beta-adrenergic receptor kinase 1 (P25098 whole entry): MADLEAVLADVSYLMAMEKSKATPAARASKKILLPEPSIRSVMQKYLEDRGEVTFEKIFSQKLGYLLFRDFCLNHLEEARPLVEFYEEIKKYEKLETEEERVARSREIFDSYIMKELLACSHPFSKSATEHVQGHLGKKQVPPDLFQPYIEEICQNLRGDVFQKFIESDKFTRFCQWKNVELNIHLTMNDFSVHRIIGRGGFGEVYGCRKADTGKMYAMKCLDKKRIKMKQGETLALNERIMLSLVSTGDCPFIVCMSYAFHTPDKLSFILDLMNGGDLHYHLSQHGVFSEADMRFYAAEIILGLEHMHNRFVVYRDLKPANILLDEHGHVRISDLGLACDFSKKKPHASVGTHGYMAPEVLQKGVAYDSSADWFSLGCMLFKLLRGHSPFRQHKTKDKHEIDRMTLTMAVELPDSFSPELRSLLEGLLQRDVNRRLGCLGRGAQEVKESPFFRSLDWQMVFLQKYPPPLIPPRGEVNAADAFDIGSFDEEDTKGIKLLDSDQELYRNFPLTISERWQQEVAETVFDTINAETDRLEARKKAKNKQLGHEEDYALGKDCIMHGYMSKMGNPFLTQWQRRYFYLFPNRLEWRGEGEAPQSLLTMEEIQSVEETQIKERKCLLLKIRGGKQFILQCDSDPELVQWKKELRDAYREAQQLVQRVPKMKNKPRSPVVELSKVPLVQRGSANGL
smiles,measurement,setting,value
CCOc1ccc(-c2cc(CCCC(=O)Nc3cccc(OC)c3)no2)cc1,AC50,[1],55.4 µM (active)
same,AC50,[2],2.45 µM (active)
same,IC50,Jurkat,9.95 µM (active)
same,AC50,[3],58.9 µM (active)
same,EC50,[4],7.56 µM (active)
same,EC50,[5],3.89 µM (active)
same,EC50,[6],0.24 µM (active)
same,IC50,[7],> 80 µM (inactive)
O=C(O)c1c2ccccc2nn1Cc1ccc(Cl)cc1,AC50,Candida albicans,149 µM (active)
COc1ccc(CCNC(=O)CCS(=O)(=O)c2ccc(Br)cc2)cc1OC,EC50,[8],14.9 µM (active)
